Values belong to the compound of their own block, whether it stands above or below them. The source made the active and inactive calls.
Columns and labels:
[1] = molecular target: T1, Sentrin-specific protease 6 (Homo sapiens, UniProt Q9GZR1); assay type: functional;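 note: Luminescence-based dose-response confirmatory assay of SENP6 inhibition, following up an ultra-high-throughput screen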
T1 sequence (Q9GZR1 whole entry): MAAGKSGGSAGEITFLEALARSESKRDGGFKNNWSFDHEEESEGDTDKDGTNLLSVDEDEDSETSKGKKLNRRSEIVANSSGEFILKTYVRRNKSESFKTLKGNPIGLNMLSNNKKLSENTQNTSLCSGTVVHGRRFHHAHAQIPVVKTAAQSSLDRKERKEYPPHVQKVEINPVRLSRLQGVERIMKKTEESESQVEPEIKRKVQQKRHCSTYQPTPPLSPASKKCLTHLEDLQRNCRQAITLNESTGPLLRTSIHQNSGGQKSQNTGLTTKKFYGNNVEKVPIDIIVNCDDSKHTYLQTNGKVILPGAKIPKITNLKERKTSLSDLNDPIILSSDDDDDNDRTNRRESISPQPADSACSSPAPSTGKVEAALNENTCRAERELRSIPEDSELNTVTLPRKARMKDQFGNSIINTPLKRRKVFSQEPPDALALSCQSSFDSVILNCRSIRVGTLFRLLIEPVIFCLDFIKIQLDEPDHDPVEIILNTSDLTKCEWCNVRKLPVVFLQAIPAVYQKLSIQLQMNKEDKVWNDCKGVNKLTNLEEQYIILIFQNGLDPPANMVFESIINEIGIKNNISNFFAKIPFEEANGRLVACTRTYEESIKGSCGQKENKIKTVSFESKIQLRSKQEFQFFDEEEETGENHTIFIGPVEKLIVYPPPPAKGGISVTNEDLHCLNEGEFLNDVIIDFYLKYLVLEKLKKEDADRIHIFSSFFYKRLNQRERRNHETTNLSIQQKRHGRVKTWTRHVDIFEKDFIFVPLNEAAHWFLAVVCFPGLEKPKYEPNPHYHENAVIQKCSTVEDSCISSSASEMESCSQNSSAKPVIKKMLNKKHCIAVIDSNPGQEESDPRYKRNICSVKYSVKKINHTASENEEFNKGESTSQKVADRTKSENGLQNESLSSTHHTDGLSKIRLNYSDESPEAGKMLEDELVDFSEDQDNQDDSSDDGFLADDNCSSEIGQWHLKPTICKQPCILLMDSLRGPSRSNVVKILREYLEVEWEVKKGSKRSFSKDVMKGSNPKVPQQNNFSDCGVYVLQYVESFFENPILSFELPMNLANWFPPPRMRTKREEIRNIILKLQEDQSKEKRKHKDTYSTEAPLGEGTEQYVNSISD

Caspase-3 = molecular target: T2, Caspase-3 (Homo sapiens, UniProt P42574); assay type: functional;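 note: Dose-response selectivity test against caspase-3 for candidate inhibitors of sentrin-specific proteases (SENPs)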
T2 sequence (P42574 whole entry): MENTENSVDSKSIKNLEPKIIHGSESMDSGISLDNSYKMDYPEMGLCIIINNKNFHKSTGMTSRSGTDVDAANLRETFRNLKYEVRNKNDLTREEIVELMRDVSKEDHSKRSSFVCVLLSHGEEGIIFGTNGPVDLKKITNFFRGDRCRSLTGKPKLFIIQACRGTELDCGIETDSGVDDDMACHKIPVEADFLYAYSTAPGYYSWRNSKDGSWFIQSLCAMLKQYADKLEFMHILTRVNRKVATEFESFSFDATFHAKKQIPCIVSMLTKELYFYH

[2] = molecular target: T3, Sentrin-specific protease 7 (Homo sapiens, UniProt Q9BQF6); assay type: functional;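 note: Luminescence-based dose-response confirmation of ultra-high-throughput screening hits, measuring inhibition of SENP7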
T3 sequence (Q9BQF6 whole entry): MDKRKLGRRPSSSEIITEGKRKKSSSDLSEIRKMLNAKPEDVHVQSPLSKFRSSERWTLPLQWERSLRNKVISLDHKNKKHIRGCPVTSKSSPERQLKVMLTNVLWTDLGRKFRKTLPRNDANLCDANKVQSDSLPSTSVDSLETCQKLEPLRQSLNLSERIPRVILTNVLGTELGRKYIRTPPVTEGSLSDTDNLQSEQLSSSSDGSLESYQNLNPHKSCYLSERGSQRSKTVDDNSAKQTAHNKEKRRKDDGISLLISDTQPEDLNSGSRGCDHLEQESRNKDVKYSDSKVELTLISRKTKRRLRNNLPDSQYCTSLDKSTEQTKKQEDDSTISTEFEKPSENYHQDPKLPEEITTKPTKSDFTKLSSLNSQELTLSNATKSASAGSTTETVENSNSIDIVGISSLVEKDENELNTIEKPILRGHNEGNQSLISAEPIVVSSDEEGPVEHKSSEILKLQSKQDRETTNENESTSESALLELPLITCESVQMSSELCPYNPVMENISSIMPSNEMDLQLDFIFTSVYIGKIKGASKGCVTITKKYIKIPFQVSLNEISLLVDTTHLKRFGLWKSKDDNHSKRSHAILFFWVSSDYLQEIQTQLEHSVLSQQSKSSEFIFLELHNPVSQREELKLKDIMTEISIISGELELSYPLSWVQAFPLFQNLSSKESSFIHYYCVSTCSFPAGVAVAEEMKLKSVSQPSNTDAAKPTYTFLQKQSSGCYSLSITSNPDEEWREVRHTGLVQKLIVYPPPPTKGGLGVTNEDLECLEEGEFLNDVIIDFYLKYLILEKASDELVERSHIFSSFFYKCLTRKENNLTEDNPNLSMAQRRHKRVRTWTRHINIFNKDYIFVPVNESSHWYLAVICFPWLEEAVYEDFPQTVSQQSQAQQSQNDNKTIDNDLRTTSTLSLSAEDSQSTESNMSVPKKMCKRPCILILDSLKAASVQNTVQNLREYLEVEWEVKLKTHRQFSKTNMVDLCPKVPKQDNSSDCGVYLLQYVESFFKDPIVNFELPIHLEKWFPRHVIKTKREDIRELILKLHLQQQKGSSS

[3] = molecular target: STE20-like serine/threonine-protein kinase (Homo sapiens, UniProt Q9H2G2); assay type: functional
Chain of STE20-like serine/threonine-protein kinase (Q9H2G2 whole entry): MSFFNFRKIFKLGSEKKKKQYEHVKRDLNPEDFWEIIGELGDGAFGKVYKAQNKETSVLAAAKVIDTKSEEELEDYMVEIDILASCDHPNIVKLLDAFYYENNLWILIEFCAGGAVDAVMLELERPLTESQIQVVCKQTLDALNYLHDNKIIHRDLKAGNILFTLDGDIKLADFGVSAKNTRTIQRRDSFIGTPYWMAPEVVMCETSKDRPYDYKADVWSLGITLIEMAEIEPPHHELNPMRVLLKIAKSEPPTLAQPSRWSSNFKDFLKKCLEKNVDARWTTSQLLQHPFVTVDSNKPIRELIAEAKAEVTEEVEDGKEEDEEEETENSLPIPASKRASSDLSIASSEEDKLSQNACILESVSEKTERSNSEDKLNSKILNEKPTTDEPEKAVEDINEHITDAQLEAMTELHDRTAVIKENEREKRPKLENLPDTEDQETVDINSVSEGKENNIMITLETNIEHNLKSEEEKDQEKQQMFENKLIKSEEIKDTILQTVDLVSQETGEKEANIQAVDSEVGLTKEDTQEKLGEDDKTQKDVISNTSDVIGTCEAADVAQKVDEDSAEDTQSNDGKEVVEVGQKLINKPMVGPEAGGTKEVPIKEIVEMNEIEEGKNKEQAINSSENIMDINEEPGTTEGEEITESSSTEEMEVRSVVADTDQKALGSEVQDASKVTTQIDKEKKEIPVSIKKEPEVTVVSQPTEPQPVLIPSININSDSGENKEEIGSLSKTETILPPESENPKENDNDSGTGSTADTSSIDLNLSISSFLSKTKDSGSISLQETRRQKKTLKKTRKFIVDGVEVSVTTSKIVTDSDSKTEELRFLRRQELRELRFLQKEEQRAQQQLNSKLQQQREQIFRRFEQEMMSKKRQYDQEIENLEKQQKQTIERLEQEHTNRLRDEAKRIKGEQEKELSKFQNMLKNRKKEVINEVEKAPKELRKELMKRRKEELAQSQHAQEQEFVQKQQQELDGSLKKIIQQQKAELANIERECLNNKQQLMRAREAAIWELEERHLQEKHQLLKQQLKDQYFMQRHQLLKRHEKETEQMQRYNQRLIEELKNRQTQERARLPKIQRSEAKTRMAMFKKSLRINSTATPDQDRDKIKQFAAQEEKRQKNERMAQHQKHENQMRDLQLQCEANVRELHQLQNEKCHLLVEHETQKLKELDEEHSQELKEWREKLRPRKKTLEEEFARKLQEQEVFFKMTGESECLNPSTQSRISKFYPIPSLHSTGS

[4] = molecular target: Tyrosine-protein kinase SYK (Homo sapiens, UniProt P43405); assay type: functional
Wee1-like protein kinase = Wee1-like protein kinase (Homo sapiens, UniProt P30291); test: Navigating the Kinome. Panel member name: WEE1; assay type: functional
Chain of Wee1-like protein kinase (P30291 whole entry): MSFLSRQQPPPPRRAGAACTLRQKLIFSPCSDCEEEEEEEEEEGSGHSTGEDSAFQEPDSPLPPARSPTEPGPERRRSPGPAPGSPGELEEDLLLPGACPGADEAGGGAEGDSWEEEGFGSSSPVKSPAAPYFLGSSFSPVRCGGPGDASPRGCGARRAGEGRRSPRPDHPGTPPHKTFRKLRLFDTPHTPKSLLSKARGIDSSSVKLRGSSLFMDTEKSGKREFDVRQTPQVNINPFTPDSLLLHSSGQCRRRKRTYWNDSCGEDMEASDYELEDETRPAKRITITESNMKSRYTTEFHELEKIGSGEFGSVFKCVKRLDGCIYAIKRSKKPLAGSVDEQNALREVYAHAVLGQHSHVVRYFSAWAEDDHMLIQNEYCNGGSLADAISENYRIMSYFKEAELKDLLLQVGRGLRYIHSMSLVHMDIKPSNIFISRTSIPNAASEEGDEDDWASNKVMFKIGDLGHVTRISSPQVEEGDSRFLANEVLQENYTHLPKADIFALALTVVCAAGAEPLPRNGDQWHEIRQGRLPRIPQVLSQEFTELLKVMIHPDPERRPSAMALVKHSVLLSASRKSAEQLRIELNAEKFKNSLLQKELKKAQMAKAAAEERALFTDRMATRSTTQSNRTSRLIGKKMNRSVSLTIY

[5] = molecular target: Casein kinase II subunit alpha (Homo sapiens, UniProt P68400); assay type: functional
Chain of Casein kinase II subunit alpha (P68400 whole entry): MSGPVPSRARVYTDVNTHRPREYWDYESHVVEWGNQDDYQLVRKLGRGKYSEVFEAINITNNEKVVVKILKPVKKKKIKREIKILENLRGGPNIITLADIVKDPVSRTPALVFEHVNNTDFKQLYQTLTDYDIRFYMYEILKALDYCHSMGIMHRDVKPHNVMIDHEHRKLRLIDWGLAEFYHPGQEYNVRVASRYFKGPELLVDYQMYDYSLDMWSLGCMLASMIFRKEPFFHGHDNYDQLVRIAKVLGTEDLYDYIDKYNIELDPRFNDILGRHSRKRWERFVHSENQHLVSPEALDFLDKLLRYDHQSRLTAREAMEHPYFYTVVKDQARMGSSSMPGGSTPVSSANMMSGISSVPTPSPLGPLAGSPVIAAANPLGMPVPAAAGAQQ

[6] = molecular target: BDNF/NT-3 growth factors receptor (Homo sapiens, UniProt Q16620); assay type: functional;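 note: NTRK2 measured as one member of a broad kinome-wide kinase profiling panel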
Chain of BDNF/NT-3 growth factors receptor (Q16620 whole entry): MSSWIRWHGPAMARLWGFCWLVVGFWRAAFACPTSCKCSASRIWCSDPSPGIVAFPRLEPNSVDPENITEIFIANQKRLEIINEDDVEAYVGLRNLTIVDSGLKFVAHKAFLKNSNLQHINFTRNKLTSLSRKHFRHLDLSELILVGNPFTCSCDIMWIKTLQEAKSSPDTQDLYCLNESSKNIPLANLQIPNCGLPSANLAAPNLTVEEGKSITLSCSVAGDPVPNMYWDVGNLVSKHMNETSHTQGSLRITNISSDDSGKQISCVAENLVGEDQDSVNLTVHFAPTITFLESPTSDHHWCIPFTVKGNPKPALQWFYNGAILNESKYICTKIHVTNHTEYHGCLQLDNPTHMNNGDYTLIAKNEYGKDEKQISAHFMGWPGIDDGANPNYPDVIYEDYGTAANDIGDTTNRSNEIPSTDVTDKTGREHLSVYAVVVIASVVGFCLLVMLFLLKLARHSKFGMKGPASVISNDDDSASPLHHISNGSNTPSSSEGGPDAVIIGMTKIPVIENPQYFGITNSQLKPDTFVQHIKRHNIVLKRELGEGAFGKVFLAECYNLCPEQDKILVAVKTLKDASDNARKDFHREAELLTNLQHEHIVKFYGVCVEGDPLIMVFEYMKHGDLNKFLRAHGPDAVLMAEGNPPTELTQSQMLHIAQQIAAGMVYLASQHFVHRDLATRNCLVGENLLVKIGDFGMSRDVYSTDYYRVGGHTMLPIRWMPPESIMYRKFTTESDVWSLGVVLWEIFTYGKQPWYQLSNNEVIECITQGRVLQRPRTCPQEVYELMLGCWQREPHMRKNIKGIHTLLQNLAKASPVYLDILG

[7] = molecular target: Tyrosine-protein kinase Fyn (Homo sapiens, UniProt P06241); assay type: functional
Chain of Tyrosine-protein kinase Fyn (P06241 whole entry): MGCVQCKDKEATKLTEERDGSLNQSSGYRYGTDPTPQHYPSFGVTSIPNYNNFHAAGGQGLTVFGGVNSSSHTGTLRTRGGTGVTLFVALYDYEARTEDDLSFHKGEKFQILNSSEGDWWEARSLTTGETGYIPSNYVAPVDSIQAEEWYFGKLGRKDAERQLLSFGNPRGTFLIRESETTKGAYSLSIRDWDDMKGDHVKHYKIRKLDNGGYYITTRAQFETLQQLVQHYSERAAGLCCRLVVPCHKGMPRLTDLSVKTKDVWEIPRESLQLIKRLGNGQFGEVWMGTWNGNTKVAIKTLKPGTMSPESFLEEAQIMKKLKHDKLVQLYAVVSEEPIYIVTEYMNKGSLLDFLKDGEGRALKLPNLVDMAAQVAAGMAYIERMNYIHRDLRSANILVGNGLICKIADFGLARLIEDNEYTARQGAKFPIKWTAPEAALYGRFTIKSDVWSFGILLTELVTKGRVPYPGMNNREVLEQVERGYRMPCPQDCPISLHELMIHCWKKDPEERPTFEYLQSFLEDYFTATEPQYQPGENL

[8] = non-specific 3'UTR reporter inhibition in Clone20-Shn3RL – cell-based, Renilla luciferase, cherry-picked, counter-screen for Shn3 inhibitor project, dose response (AID 624133); assay type: functional
[9] = NIH3T3 cell viability loss – ATP luminescence, mouse fibroblasts, counter-screen, dose response (AID 2010); assay type: functional, cell-based;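 note: cells exposed to compound for about 90 hours before reading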
[10] = molecular target: Tyrosine-protein phosphatase non-receptor type 22 (Homo sapiens, UniProt Q9Y2R2); assay type: functional;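 note: confirmatory dose-response retest of primary uHTS hits for inhibition of LYP phosphatase, measured by a fluorescence intensity read-out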
Chain of Tyrosine-protein phosphatase non-receptor type 22 (Q9Y2R2 whole entry): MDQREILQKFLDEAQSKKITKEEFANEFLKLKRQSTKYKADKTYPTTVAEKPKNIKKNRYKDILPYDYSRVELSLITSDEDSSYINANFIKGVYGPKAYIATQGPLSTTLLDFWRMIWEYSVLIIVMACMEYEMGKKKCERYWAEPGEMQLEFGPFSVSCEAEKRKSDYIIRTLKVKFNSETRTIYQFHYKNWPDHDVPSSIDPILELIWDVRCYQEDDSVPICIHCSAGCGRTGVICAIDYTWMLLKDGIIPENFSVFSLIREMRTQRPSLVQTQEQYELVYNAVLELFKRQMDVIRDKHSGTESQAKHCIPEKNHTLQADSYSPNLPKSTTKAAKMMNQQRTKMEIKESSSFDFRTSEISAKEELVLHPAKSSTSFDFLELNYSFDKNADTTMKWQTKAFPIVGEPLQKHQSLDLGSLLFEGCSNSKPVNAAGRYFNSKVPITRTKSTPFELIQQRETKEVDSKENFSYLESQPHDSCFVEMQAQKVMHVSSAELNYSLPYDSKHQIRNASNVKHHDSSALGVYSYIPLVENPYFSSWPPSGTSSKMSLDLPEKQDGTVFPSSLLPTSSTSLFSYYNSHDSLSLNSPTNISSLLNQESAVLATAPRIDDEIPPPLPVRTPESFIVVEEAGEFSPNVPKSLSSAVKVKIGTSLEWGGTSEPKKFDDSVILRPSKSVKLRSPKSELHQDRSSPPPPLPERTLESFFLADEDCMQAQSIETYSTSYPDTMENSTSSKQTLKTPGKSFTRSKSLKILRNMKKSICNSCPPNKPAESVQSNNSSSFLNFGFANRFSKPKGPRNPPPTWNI

Structure (SMILES): CC(C)c1ccc(-c2nnn(CCC(=O)O)n2)cc1
IC50 [1]: 9.32 µM (active) | IC50 (Caspase-3): 48.6 µM (active) | IC50 [2]: 7.22 µM (active)

Ki [3]: > 10 µM (inactive) | Ki [4]: > 1.58 µM (inactive) | Ki (Wee1-like protein kinase): > 2.51 µM (inactive) | Ki [5]: 631 nM (active) | Ki [6]: > 3.98 µM (inactive) | Ki [7]: > 6.31 µM (inactive)
Structure (SMILES): COc1cc2c(cc1Nc1nc(Nc3cccc(F)c3C(N)=O)c3cc[nH]c3n1)N(C(=O)CN(C)C)CC2

Structure (SMILES): CCn1nc(/C=C/c2ccccc2)nc2c(=O)n(C)c(=O)nc1-2
AC50 [8]: 5.79 µM (active) | EC50 [9]: 1.02 µM (active) | IC50 [10]: 11.7 µM (active)

Source: ChEMBL document CHEMBL1201862, “PubChem BioAssay data set” (2004)
